This is an account of results in patent EP0003461A1, “Aminoalcohol derivatives of ortho-hydroxy-methyl cinnamate, process for their preparation and medicines containing them” (LIPHA, LYONNAISE INDUSTRIELLE PHARMACEUTIQUE, priority 1978, dated 1979).

Series [1] in a line: Clinical trial observations in patients given 200 mg tablets. It counts as in vivo. As for the experimental part: Parmi les observations recueillies en essai clinique, avec administration de comprimés titrés à 200 mg de principe actif, le chlorhydrate de l'ortho [(diméthoxy-3,4 phénéthylamino) -3 hydroxy-2 propoxy] trans cinnamate de méthyle, on peut rapporter les trois suivantes : • Observation N°1: • Monsieur NOV...., 64 ans présente un état de mal angineux chroniaue avec huit crises par 24 heures. Le traitement consiste en un repos et la prise d'un comprimé à 200 mg du composé exemple 1 24 heures pendant 10 jours. Le résultat est un effet bradycardisant net; le pouls passe de 95 à 60 et une très nette diminution des crises dès le deuxième jour (2 à 3 par 24 heures) est notée. La tolérance est très bonne. • Obseryation N°2: • Monsieur CLI...., 75 ans présente un bloc auriculo- ventriculaire complet appareillé par pace-maker cardis à un rythme fixe (68/mn) avec parpsystolie. A l'suscultation on note un souffle systolique en écharpe. L'électrocardiogramme montre une paracystolie avec complexes spontanés à F.R. long et aspect de bloc gauche et co-plexe électro- entrainés. La radiographie montre une hypertrophie ventriculaire gauche modérée. Le traitement consiste en la prise journalière pendant 10 jours du composé exemple 1 à 200 mg.
Monsieur HEL ...., 44 ans a une hypertension artérielle depuis 3 ans; les chiffres habituels récents sont 180/110 mn Mg. L'étiologie est inconnue et il n'y a pas de complications. On associe au traitement consistant en la prise le matin d' 1 comprimé à 200 mg, pendant 15 jours, un régime hyposodé.

Another series concerns récepteurs bêta-2. Put plainly: Inhibition of isoprenaline-induced hypotension in the anaesthetised, bivagotomised dog. The series is classed as in vivo, chien. To be noted: dog anaesthetised with pentobarbital, isoprénaline 0,4 µg/kg/I.V., beta-2 blockade. From the text:
L'hypotension provoquée par l'isoprénaline est due à une stimulation des récepteurs bêta-2 qui entraîne une vasodilatation. La tachycardie produite par l'isopré- naline est due à une stimulation des récepteursbêta-1 cardiaques oui entraîne une accélération de son rythme de contraction.

A further series has as its system récepteurs bêta-1. Kind of series: Inhibition of isoprenaline-induced tachycardia in the anaesthetised, bivagotomised dog. The series is classed as in vivo, chien. To be noted: dog anaesthetised with pentobarbital, isoprénaline 0,4 µg/kg/I.V., beta-1 blockade. As for the experimental part:
[…]'action sur […] tension artérielle et du rythme cardiaque du […]é au pentobarbital et bivagotomisé recevant des injections […] (0,4 μg/kg/I.V.). L'hypotension provoquée par l'isoprénaline est due à une stimulation des récepteurs bêta-2 qui […] une vasodilatation. La […] produite par l'isopré- naline est due à une stimulation des récepteursbêta-1 cardiaques oui […] une accélération de son rythme de contraction. Dans l'inhibition […] visualisant un effet de blocage des récepteurs bêta-1, on a déterminé la dose efficace 50 en mg/kg/I.V.

SMILES strings stand for the structures.

For `COC(=O)/C=C/c1ccccc1OCC(O)CNCCc1ccc(OC)c(OC)c1` (racemic) [Composé exemple 1, trans ortho [(3-4 diméthoxyphénéthyl)amino-3 hydroxy-2 propoxy] cinnamatede méthyle], the tolérance result in series [1] (Observation N°1: 200 mg per 24 h for 10 days) is recorded as “très bonne”; in series [1] (Observation N°2: 200 mg daily for 10 days), “très bonne”; in series [1] (Observation N°3: general and local tolerance, 200 mg per day for 15 days) it was “bonne”. For the same molecule, in series [1] (Observation N°1: angina attacks from the second day, one 200 mg tablet per 24 h, before treatment eight per 24 h), the “crises par 24 heures” value was 2 à 3 par 24 heures. Also, the pouls in series [1] (Observation N°1: patient, chronic angina, one 200 mg tablet per 24 h for 10 days, before treatment 95) was 60. Further, the résultat result is given as “disparition de la para- systolie” in series [1] (Observation N°2: patient, complete AV block with pacemaker and parasystole, 200 mg daily for 10 days); “très bon” in series [1] (Observation N°3: patient, arterial hypertension, one 200 mg tablet in the morning for 15 days, with low-sodium diet). For the same molecule, the “Pouls, Après” value in series [1] (Observation N°3: after treatment, 200 mg per day for 15 days, before 70) came out at 60. In series [1] (Observation N°3: after treatment, 200 mg per day for 15 days, before 160/100), the “Tension artérielle debout, Après” value is recorded as 140/88. For the same molecule, the “Tension artérielle couché, Après” value in series [1] (Observation N°3: after treatment, 200 mg per day for 15 days, before 165/102) is listed as 140/90.

Regarding `COC(=O)/C=C/c1ccccc1OCC(O)CNC(C)C` (stereo not drawn) [LM 748, chlorhydrate de l'ortho (isopropylamino 3 - hydroxy-2 propoxy) trans cinnamate de méthyle], the “dose efficace 50 (DE 50), inhibition de l'hypotension à l'isoprénaline” value in the series with récepteurs bêta-2 was 0,01 mg/kg/I.V.

For `CC(=O)Nc1ccc(OCC(O)CNC(C)C)cc1` (stereo not drawn) [Fractolol, 4' - [2-hydroxy-3 - (iso-propylamino)propoxy] acétanilide], in the series on récepteurs bêta-1, the “dose efficace 50 (DE 50), inhibition de la tachycardie à l'isoprénaline” value was 0,61 mg/kg/I.V.
